Laboratory results as given in ChEMBL document CHEMBL1153320, “Development of the renal glucose reabsorption inhibitors: a new mechanism for the pharmacotherapy of diabetes mellitus type 2” (J Med Chem, 2009).
Values belong to the compound of their own block, whether it stands above or below them.

Key:
[1] = target: T1, Sodium/glucose cotransporter 2 (Homo sapiens, UniProt P31639); assay: Inhibition of human kidney SGLT2 assessed as renal glucose reabsorption
T1 sequence (P31639 whole entry): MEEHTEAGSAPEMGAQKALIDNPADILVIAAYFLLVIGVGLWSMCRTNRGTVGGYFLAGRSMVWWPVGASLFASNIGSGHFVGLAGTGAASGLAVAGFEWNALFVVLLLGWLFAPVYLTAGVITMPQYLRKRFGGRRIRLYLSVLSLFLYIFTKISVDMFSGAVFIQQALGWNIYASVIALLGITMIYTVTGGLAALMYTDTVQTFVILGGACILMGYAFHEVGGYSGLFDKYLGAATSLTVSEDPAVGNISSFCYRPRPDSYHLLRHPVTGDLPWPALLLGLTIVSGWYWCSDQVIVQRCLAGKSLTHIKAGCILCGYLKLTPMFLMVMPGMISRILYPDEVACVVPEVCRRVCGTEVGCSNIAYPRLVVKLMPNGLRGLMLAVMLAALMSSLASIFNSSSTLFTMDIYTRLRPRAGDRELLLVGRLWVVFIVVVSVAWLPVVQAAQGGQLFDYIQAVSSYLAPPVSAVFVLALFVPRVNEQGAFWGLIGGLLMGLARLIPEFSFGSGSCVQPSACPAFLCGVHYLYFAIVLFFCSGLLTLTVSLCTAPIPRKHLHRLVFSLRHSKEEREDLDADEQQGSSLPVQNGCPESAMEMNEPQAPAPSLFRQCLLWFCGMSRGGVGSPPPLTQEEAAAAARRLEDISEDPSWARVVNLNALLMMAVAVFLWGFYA

Rattus norvegicus [2] = assay: Antidiabetic activity in normal Sprague-Dawley rat assessed as urinary glucose excretion at 100 mg/kg, po after 24 hrs; format: functional, Urine
Rattus norvegicus [3] = assay: Antidiabetic activity in normal Sprague-Dawley rat assessed as urinary glucose excretion at 300 mg/kg, po after 24 hrs; format: functional, Urine
Rattus norvegicus [4] = assay: Antidiabetic activity in normal Sprague-Dawley rat assessed as urinary glucose excretion at 30 mg/kg, po after 24 hrs; format: functional, Urine
Rattus norvegicus [5] = assay: Antidiabetic activity in normal Sprague-Dawley rat assessed as urinary glucose excretion at 10 mg/kg, po after 24 hrs; format: functional, Urine
Homo sapiens [6] = assay: Antidiabetic activity in po dosed type 2 diabetes mellitus patient assessed as reduction in HbA1C level in small intestine; format: functional; design: scale not given: the % may be the effect or the level left
Homo sapiens [7] = assay: Antidiabetic activity in po dosed type 2 diabetes mellitus patient assessed as reduction in HbA1C level […]; format: functional; design: scale not given: the % may be the effect or the level left
[8] = Clearance in normal human at 10 to 100 mg/day, po administered as single ascending dose; conditions: in vivo
clinical = conditions: human, in vivo, po
[9] = Half life in normal human at 10 to 100 mg/day, po administered as single ascending dose; conditions: in vivo
Rattus norvegicus [10] = assay: Antidiabetic activity in normal Sprague-Dawley rat assessed as urinary glucose excretion at 1 mg/kg, po after 24 hrs; format: functional, Urine
Homo sapiens [11] = assay: Antidiabetic activity in type 2 diabetes mellitus patient assessed as reduction in HbA1C level at 750 mg, po daily measured after 12 weeks; format: functional; design: scale not given: the % may be the effect or the level left
Homo sapiens [12] = species on record: Homo sapiens; assay: Antidiabetic activity in type 2 diabetes mellitus patient assessed as reduction body weight; format: functional; design: scale not given: the % may be the effect or the level left
Homo sapiens [13] = assay: Antidiabetic activity in po dosed type 2 diabetes mellitus patient assessed as reduction in HbA1C level in intestine; format: functional; design: scale not given: the % may be the effect or the level left
Homo sapiens [14] = assay: Antidiabetic activity in po dosed type 2 diabetes mellitus patient assessed as reduction in HbA1C level in liver; format: functional; design: scale not given: the % may be the effect or the level left
Rattus norvegicus [15] = assay: Antidiabetic activity in normal Sprague-Dawley rat assessed as urinary glucose excretion at 3 mg/kg, po after 24 hrs; format: functional, Urine
Homo sapiens [16] = species on record: Homo sapiens; assay: Selectivity for human SGLT2 over human SGLT1
Homo sapiens [17] = assay: Antidiabetic activity in po dosed type 2 diabetes mellitus patient assessed as reduction in HbA1C level in skeletal muscle; format: functional, Muscle tissue; design: scale not given: the % may be the effect or the level left
Homo sapiens [18] = assay: Antidiabetic activity in po dosed type 2 diabetes mellitus patient assessed as reduction in HbA1C level in adipose tissue; format: functional; design: scale not given: the % may be the effect or the level left
Homo sapiens [19] = assay: Antidiabetic activity in normal human assessed as plasma glucose level at 500 mg, po after 4 hrs by OGTT; format: functional
Homo sapiens [20] = assay: Antidiabetic activity in normal human assessed as reduction urinary glucose excretion at 500 mg, po after 24 hrs; format: functional, Urine
Homo sapiens [21] = assay: Antidiabetic activity in over-weight subject assessed as reduction of body weight at […], po tid for 2 weeks; format: functional
Homo sapiens [22] = assay: Antidiabetic activity in normal human assessed as reduction urinary glucose excretion at 200 mg, po after 24 hrs; format: functional, Urine

- IC50 [1]: 50 nM
SMILES: Cc1cc(O)c(C(=O)CCc2ccc3occc3c2)c(O[C@@H]2O[C@H](CO)[C@@H](O)[C@H](O)[C@H]2O)c1

- EC50 [1]: 500 nM
SMILES: CCNC(=O)c1c(O)c(Cc2ccc(OC)cc2)cc([C@@H]2O[C@H](CO)[C@@H](O)[C@H](O)[C@H]2O)c1O

SMILES: COC(=O)OC[C@H]1O[C@@H](Oc2cc(C)cc(O)c2C(=O)CCc2ccc3occc3c2)[C@H](O)[C@@H](O)[C@@H]1O
- Activity (Rattus norvegicus [2]): 1000 mg
- Activity (Rattus norvegicus [3]): 2000 mg
- Activity (Rattus norvegicus [4]): 450 mg
- Activity (Rattus norvegicus [5]): 50 mg

- EC50 [1]: > 2 nM
SMILES: CCc1ccc(Cc2ccccc2[C@@H]2O[C@H](CO)[C@@H](O)[C@H](O)[C@H]2O)cc1

SMILES: C[C@H]1O[C@H](O[C@H]2[C@H](O)[C@@H](O)[C@@H](O[C@H]3[C@H](O)[C@@H](O)C(O)O[C@@H]3CO)O[C@@H]2CO)[C@H](O)[C@@H](O)[C@@H]1N[C@H]1C=C(CO)[C@@H](O)[C@H](O)[C@H]1O (stereo partly specified) [ACARBOSE]
- Activity (Homo sapiens [6]): 0.5%
- Activity (Homo sapiens [7]): 0.5%

- CL/F [8]: 6 mL/min
- Tmax (clinical): 1 h
- half-life [9]: 15 h
SMILES: CCOc1ccc(Cc2cc([C@@H]3O[C@H](CO)[C@@H](O)[C@H](O)[C@H]3O)ccc2Cl)cc1 [DAPAGLIFLOZIN]
- Activity (Rattus norvegicus [10]): 1100 mg

SMILES: CCC1=C(C)CN(C(=O)NCCc2ccc(S(=O)(=O)NC(=O)N[C@H]3CC[C@H](C)CC3)cc2)C1=O [GLIMEPIRIDE]
- Activity (Homo sapiens [7]): 1%

SMILES: C/N=C(\N)N(C)C(=N)N.Cl [METFORMIN XR]
- Activity (Homo sapiens [11]): 0.73%
- Activity (Homo sapiens [12]): 2.3%

SMILES: CN(C)C(=N)NC(=N)N [METFORMIN]
- Activity (Homo sapiens [13]): 1%
- Activity (Homo sapiens [14]): 1%
- Activity (Homo sapiens [7]): 1%

SMILES: O=C(CCc1ccc(O)cc1)c1c(O)cc(O)cc1O[C@@H]1O[C@H](CO)[C@@H](O)[C@H](O)[C@H]1O [PHLORIZIN]
- Activity (Rattus norvegicus [3]): 80 mg

SMILES: CCOC(=O)OC[C@H]1O[C@@H](Oc2nn(C(C)C)c(C)c2Cc2ccc(OC(C)C)cc2)[C@H](O)[C@@H](O)[C@@H]1O [REMOGLIFLOZIN ETABONATE]
- Activity (Rattus norvegicus [15]): 95 mg
- Activity (Rattus norvegicus [5]): 320 mg
- Activity (Rattus norvegicus [10]): 36 mg

- EC50 [1]: 14 nM
- Ki [1]: 12.4 nM
- Ratio (Homo sapiens [16]): 365
SMILES: Cc1c(Cc2ccc(OC(C)C)cc2)c(O[C@@H]2O[C@H](CO)[C@@H](O)[C@H](O)[C@H]2O)nn1C(C)C [REMOGLIFLOZIN]

SMILES: CCOc1cc(CC(=O)N[C@@H](CC(C)C)c2ccccc2N2CCCCC2)ccc1C(=O)O [REPAGLINIDE]
- Activity (Homo sapiens [7]): 1%

SMILES: CN(CCOc1ccc(CC2SC(=O)NC2=O)cc1)c1ccccn1 (stereo unspecified) [ROSIGLITAZONE]
- Activity (Homo sapiens [17]): 0.5%
- Activity (Homo sapiens [18]): 0.5%
- Activity (Homo sapiens [14]): 0.5%

- EC50 [1]: 9 nM
- Ki [1]: 2.4 nM
- Ratio (Homo sapiens [16]): 296
SMILES: COc1ccc(Cc2ccccc2O[C@@H]2O[C@H](CO)[C@@H](O)[C@H](O)[C@H]2O)cc1 [SERGLIFLOZIN A]

SMILES: CCOC(=O)OC[C@H]1O[C@@H](Oc2ccccc2Cc2ccc(OC)cc2)[C@H](O)[C@@H](O)[C@@H]1O [SERGLIFLOZIN ETABONATE]
- Activity (Homo sapiens [19]): 7 mmol·h/L
- Activity (Rattus norvegicus [15]): 80 mg
- Activity (Homo sapiens [20]): 17 g
- Activity (Homo sapiens [21]): 1.5 kg
- Activity (Homo sapiens [22]): 12 g
- Activity (Rattus norvegicus [4]): 400 mg
- Activity (Rattus norvegicus [5]): 180 mg

SMILES: N[C@@H](CC(=O)N1CCn2c(nnc2C(F)(F)F)C1)Cc1cc(F)c(F)cc1F [SITAGLIPTIN]
- Activity (Homo sapiens [13]): 0.6%
